Assay results taken from ChEMBL document CHEMBL1201862, “PubChem BioAssay data set” (2004).
Blank lines part the entries; values can stand above or below the molecule they belong to. Activity calls are given as the source filed them.

Columns and labels:
Prothrombin = Prothrombin (Homo sapiens, UniProt P00734); experiment: Thrombin 1536 HTS Dose Response Confirmation. [Related pubchem assays: 1046 (Thrombin 1536 HTS; hits were confirmed in this assay)]; assay type: functional
[1] = biological target: Voltage-dependent T-type calcium channel subunit alpha-1H (Homo sapiens, UniProt O95180); assay type: functional;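 also: channel activity triggered by adding a high calcium stimulation buffer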
[2] = A549 cell cytotoxicity, dose response, cytotoxicity control, plate reader, cherry-pick, antagonist series (AID 743412); assay type: functional, cell-based
[3] = CEM21 lymphoblast cell cytotoxicity, dose response, cytotoxicity control for viral fusion inhibitor project, CellTiter-Glo luminescence, cherry-picked (AID 652042); assay type: functional, cell-based;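 also: potency for signal decrease meaning cytotoxicity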
[4] = off-target signal loss in HeLa-CEM21 co-culture – HeLa F-luc CTL cells, cherry-picked, counter-screen for HIV-1 Env fusion inhibitor project, dose response (AID 652040); assay type: functional, cell-based;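 also: potency for signal decrease marking cytotoxic or nonspecific inhibition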
[5] = inhibitors of clade B AD8 Env fusion, dose response, cell-based, cherry-pick (AID 652062); assay type: functional;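 also: luciferase signal from cell-cell fusion driven by HIV-1 clade B AD8 Env; potency is for inhibitors of fusion seen as a drop in luminescence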
[6] = biological target: T1, Voltage-gated N-type calcium channel alpha-1B subunit/Amyloid beta A4 precursor protein-binding family A member 1 (Homo sapiens, UniProt Q00975+Q02410); assay type: protein assay
[7] = biological target: T1, Voltage-gated N-type calcium channel alpha-1B subunit/Amyloid beta A4 precursor protein-binding family A member 1; assay type: protein assay; remark: listed apart in the source
[8] = human group III sPLA2 inhibitors, dose response, biochemical, QFRET, IC50 (AID 743457);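 also: green fluorescence rise as the enzyme cleaves BODIPY PC-A2 in liposomes; potency for inhibition of the enzyme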
[9] = biological target: T2, Polyadenylate-binding protein 1 (Homo sapiens, UniProt P11940); experiment: PABP1 MLLE–PAM2 interaction inhibitors, dose response, miRNA deadenylation inhibitor project, biochemical, fluorescence polarization, Cy5-PAM2 peptide, secondary (AID 602260); assay type: functional; settings: read-out: IC50_Mean
[10] = biological target: T2, Polyadenylate-binding protein 1; experiment: PABP1 MLLE–PAM2 binding inhibitor potency, dose response, biochemical, fluorescence polarization, FITC-PAM2 peptide (AID 602259); assay type: functional; settings: read-out: IC50_Mean
[11] = biological target: T3, Corticotropin-releasing factor receptor 2/Corticotropin-releasing factor-binding protein (Homo sapiens, UniProt P24387+Q13324); experiment: activators of CRF receptor 2 with binding protein – uHTS hits, confirmation (AID 602473); assay type: functional; settings: read-out: EC50_Mean
T3 sequence (Q13324 whole entry): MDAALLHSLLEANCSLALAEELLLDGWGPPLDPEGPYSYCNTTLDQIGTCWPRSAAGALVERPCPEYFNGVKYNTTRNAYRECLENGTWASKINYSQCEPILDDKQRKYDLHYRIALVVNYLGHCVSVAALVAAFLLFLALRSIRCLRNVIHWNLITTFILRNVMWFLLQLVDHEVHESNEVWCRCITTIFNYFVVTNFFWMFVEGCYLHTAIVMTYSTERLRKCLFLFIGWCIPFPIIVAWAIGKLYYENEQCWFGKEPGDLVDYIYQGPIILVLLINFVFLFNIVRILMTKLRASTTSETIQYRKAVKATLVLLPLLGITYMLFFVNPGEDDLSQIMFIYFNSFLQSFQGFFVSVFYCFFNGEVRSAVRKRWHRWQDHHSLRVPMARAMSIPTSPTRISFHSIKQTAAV
T3 sequence (P24387 whole entry): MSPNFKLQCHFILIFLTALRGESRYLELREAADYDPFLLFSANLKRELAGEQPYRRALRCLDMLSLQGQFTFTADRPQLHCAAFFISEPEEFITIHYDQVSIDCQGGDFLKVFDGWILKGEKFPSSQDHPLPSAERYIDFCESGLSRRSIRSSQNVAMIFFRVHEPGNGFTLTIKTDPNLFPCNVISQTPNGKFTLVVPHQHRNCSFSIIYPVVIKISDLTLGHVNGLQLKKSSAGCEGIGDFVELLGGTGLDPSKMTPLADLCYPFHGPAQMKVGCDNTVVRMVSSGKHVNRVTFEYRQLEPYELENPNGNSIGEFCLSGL

[12] = cytotoxicity in HEK-293T cells, dose response, cytotoxicity control for TCR NF-kB inhibitor project, luminescence, T-cell screen hits (AID 489026); assay type: functional, cell-based;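 also: cells exposed to compound about 14 hours before the viability readout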
[13] = Shn3 3'UTR reporter inhibitors, dose response, cell-based, Clone20 osteoblasts, firefly luciferase, cherry-picked (AID 624132); assay type: functional;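 also: firefly luciferase luminescence from reporter carrying the Shn3 3'UTR in osteoblasts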
[14] = HepG2 cell cytotoxicity, dose response, cytotoxicity control for Shn3 inhibitor project, CellTiter-Glo, cherry-picked (AID 624134); assay type: functional, cell-based
[15] = control 3'UTR Renilla luciferase suppression, dose response, counter-screen for Shn3 inhibitor project, cell-based, Clone20-Shn3RL, cherry-picked (AID 624133); assay type: functional
[16] = inhibitors of HIV Env-driven cell fusion, dose response, cherry-pick (AID 652057); assay type: functional, cell-based
[17] = ZM109 Env clade C HIV-1 fusion inhibitors, dose response, HeLa effector, CEM target cells, luciferase, cherry-pick (AID 652058); assay type: functional, cell-based

T1 sequence (Q00975 whole entry): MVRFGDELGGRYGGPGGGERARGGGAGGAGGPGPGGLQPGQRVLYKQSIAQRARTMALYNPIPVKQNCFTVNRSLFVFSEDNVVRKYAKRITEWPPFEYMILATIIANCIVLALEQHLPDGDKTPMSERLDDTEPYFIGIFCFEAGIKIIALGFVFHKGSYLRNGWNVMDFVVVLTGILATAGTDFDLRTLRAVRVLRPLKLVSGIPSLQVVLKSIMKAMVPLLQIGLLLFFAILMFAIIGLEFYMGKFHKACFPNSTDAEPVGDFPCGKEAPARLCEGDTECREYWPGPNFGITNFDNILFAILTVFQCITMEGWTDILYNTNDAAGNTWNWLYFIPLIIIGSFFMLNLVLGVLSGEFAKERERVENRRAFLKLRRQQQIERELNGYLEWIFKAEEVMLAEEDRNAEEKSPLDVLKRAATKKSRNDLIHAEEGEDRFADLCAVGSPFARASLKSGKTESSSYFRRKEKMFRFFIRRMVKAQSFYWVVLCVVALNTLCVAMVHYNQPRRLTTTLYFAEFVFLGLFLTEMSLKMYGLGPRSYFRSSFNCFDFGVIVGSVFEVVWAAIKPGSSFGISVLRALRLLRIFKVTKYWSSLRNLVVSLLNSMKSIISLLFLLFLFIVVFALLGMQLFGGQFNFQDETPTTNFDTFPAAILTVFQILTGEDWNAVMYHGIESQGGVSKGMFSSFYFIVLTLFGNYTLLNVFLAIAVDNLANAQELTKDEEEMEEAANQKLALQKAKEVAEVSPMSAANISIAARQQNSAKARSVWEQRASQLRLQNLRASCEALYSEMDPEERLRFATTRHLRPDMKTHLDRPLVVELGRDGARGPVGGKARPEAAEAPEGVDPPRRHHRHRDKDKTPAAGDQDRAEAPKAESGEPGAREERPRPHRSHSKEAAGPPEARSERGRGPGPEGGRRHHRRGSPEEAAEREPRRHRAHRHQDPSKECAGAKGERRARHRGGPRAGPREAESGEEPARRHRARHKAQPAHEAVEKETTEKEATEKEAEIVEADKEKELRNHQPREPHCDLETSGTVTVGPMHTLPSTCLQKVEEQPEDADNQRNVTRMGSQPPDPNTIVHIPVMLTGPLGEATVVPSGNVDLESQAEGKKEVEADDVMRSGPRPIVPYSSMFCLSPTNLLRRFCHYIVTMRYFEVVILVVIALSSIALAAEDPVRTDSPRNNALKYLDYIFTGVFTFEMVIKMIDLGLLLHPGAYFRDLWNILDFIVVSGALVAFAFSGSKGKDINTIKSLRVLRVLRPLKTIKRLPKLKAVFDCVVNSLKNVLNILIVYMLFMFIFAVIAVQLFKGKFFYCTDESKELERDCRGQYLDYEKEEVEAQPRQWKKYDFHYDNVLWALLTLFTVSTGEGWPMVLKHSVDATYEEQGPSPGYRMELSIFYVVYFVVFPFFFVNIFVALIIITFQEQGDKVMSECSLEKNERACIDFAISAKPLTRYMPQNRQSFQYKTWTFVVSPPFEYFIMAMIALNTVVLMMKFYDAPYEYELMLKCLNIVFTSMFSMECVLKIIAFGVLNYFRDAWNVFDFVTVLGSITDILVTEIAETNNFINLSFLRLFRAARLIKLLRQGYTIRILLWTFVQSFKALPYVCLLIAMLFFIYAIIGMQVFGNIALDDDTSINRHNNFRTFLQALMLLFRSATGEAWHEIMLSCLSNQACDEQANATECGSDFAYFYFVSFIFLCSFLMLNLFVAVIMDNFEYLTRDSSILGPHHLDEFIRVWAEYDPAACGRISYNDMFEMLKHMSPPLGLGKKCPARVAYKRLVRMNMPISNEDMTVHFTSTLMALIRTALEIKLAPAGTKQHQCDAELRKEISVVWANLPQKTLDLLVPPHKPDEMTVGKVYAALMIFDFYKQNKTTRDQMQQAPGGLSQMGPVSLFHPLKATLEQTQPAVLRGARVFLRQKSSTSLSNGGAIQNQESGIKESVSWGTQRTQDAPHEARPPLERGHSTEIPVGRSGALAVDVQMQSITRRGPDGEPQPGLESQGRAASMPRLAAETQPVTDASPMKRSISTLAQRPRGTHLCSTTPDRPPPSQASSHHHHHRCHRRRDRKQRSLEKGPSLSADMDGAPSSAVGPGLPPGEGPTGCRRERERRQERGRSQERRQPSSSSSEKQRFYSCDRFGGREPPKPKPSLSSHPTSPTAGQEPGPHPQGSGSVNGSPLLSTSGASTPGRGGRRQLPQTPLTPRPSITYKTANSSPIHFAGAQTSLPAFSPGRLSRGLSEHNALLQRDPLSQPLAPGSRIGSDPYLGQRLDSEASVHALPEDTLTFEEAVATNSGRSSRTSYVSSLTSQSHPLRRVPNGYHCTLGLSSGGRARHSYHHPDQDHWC
T1 sequence (Q02410 whole entry): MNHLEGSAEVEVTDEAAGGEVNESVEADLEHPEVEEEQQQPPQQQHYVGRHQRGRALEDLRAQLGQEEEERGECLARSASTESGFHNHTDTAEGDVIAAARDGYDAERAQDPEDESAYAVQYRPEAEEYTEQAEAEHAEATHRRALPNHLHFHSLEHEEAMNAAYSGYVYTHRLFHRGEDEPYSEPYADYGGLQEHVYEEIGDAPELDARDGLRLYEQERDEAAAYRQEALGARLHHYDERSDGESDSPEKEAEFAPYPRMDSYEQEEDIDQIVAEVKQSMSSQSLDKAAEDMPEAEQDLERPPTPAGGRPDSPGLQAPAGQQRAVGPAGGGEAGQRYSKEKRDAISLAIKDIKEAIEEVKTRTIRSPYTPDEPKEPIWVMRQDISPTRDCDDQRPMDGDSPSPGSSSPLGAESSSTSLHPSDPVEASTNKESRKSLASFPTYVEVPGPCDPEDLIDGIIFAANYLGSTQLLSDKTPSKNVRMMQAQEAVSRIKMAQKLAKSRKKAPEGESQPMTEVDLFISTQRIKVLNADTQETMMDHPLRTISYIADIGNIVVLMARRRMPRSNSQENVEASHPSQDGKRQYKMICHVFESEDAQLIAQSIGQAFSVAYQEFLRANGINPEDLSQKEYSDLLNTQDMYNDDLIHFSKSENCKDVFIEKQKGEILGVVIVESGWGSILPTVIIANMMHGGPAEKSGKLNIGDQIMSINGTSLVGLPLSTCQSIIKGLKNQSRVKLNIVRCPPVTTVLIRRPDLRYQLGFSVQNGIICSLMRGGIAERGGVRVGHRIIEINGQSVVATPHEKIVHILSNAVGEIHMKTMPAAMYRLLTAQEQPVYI
T2 sequence (P11940 whole entry): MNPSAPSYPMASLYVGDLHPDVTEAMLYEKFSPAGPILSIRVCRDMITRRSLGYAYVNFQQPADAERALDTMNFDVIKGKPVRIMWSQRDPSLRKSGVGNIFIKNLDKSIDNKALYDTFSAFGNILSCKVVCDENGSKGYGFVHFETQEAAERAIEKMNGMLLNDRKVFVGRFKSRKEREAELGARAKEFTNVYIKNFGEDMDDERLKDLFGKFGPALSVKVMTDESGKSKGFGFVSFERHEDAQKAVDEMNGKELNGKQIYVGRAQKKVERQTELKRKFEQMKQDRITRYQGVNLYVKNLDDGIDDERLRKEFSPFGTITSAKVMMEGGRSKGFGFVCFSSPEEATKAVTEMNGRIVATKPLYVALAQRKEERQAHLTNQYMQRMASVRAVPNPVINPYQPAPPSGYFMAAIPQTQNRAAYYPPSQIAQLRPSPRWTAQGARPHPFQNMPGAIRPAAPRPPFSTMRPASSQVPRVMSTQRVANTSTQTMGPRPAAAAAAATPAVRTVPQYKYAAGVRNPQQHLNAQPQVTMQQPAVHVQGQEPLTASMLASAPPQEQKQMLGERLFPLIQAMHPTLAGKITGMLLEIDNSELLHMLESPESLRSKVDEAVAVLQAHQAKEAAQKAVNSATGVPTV

IC50 (Prothrombin): 25.4 µM (active)
Structure (SMILES): O=C(Cc1cccs1)Nc1nnc(CCc2ccccc2)s1

EC50 [1]: 4.2 µM (active)
Structure (SMILES): O=C(CSCc1ccc(Cl)cc1)NCc1ccc2c(c1)OCO2

Structure (SMILES): COc1ccc2[nH]c3c(c2c1)CCN1C(=O)N([C@@H](C)C(=O)NCc2ccc(C)cc2)C(=O)[C@]31C
AC50 [2]: > 52 µM (inactive)

Structure (SMILES): CCN(CC)S(=O)(=O)c1cccc(NC(=O)c2ccc(-n3nc(C)cc3C)cc2)c1
AC50 [3]: 49.7 µM (active)
AC50 [4]: 10.7 µM (active)
AC50 [5]: 15.8 µM (active)

EC50 [1]: 9.51 µM (active)
Structure (SMILES): O=c1c2ccccc2nc(N2CCN(c3ccccc3)CC2)n1Cc1ccccc1

IC50 (Prothrombin): > 50 µM (not active)
Structure (SMILES): COC(=O)c1ccccc1NC(=O)C1CC(=O)N(c2ccc(F)cc2)C1 (centres undefined)

IC50 [6]: 4.02 µM (active)
IC50 [7]: > 50 µM (inactive)
Structure (SMILES): COc1cc(NC(=O)c2ccc(F)cc2)ccc1NC(=O)c1cc2ccccc2o1

IC50 (Prothrombin): 0.00538 µM (active)
Structure (SMILES): CCCC(=O)n1nc(-c2cccnc2)nc1NCc1ccccc1

IC50 [8]: > 122 µM (inactive)
Structure (SMILES): Sc1nnc(-c2ccc(Cl)cc2Cl)n1Cc1ccccc1

IC50 [8]: > 122 µM (inactive)
Structure (SMILES): COc1ccccc1N=C(S)NNC(=O)c1nn(C)c(C)c1Cl

IC50 [9]: > 66 µM (inactive)
IC50 [10]: > 66 µM (inactive)
EC50 [11]: > 53 µM (inactive)
IC50 [8]: > 122 µM (inactive)
Structure (SMILES): O=C(NC(=S)NNC(=O)c1ccccc1O)c1ccc([N+](=O)[O-])cc1

Structure (SMILES): O=C(Nc1ccc(N2CCN(C(=O)c3ccc(Cl)cc3)CC2)cc1)c1ccc2c(c1)OCCO2
IC50 [12]: > 80 µM (inactive)
AC50 [13]: 2.54 µM (active)
AC50 [14]: 1.96 µM (active)
AC50 [15]: 7.89 µM (active)
AC50 [16]: 32.5 µM (active)
AC50 [3]: 47.7 µM (active)
AC50 [17]: 0.791 µM (active)
AC50 [5]: 6.8 µM (active)

IC50 [6]: > 56.8 µM (not active)
IC50 [7]: 24.8 µM (active)
Structure (SMILES): CCc1nc2sc3c(=O)cc(O)[nH]c3c2cc1C

IC50 [6]: > 56.8 µM (not active)
IC50 [7]: > 50 µM (inactive)
Structure (SMILES): COc1ccc(Cl)cc1NC(=O)c1nnn(CC(=O)Nc2ccc(OC)c(OC)c2)c1N
